#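 How tested: cells in 96-well plates exposed to compound for 48 hours at five concentrations. TGI is the concentration that stops growth completely.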
# Legend:
# Assay in all cases: DTP human tumour cell line panel, 48 h
# 786-0 renal = tested on: 786-0 renal
# A498 renal = tested on: A498 renal
# A549 NSCLC = tested on: A549 NSCLC
# ACHN renal = tested on: ACHN renal
# BT-549 breast = tested on: BT-549 breast
# CAKI-1 renal = tested on: CAKI-1 renal
# CCRF-CEM leukemia = tested on: CCRF-CEM leukemia
# COLO 205 colon = tested on: COLO 205 colon
# DU-145 prostate = tested on: DU-145 prostate
# EKVX NSCLC = tested on: EKVX NSCLC
# HCT-116 colon = tested on: HCT-116 colon
# HCT-15 colon = tested on: HCT-15 colon
# HL-60(TB) leukemia = tested on: HL-60(TB) leukemia
# HOP-62 NSCLC = tested on: HOP-62 NSCLC
# HOP-92 NSCLC = tested on: HOP-92 NSCLC
# HS 578T breast = tested on: HS 578T breast
# HT29 colon = tested on: HT29 colon
# IGROV1 ovarian = tested on: IGROV1 ovarian
# K-562 leukemia = tested on: K-562 leukemia
# KM12 colon = tested on: KM12 colon
# LOX IMVI melanoma = tested on: LOX IMVI melanoma
# M14 melanoma = tested on: M14 melanoma
# MALME-3M melanoma = tested on: MALME-3M melanoma
# MCF7 breast = tested on: MCF7 breast
# MDA-MB-231 breast = tested on: MDA-MB-231 breast
# MDA-MB-435 = tested on: MDA-MB-435
# MDA-N = tested on: MDA-N
# NCI-H226 lung = tested on: NCI-H226 lung
# NCI-H23 lung = tested on: NCI-H23 lung
# NCI-H460 lung = tested on: NCI-H460 lung
# NCI-H522 lung = tested on: NCI-H522 lung
# NCI/ADR-RES ovarian = tested on: NCI/ADR-RES ovarian
# OVCAR-3 ovarian = tested on: OVCAR-3 ovarian
# OVCAR-4 ovarian = tested on: OVCAR-4 ovarian
# OVCAR-5 ovarian = tested on: OVCAR-5 ovarian
# OVCAR-8 ovarian = tested on: OVCAR-8 ovarian
# PC-3 prostate = tested on: PC-3 prostate
# RPMI-8226 leukemia = tested on: RPMI-8226 leukemia
# RXF 393 renal = tested on: RXF 393 renal
# SF-268 CNS = tested on: SF-268 CNS
# SF-295 CNS = tested on: SF-295 CNS
# SK-MEL-2 melanoma = tested on: SK-MEL-2 melanoma
# SK-MEL-28 melanoma = tested on: SK-MEL-28 melanoma
# SK-MEL-5 melanoma = tested on: SK-MEL-5 melanoma
# SK-OV-3 ovarian = tested on: SK-OV-3 ovarian
# SN12C renal = tested on: SN12C renal
# SNB-19 CNS = tested on: SNB-19 CNS
# SNB-75 CNS = tested on: SNB-75 CNS
# SR leukemia = tested on: SR leukemia
# SW-620 colon = tested on: SW-620 colon
# T-47D breast = tested on: T-47D breast
# TK-10 renal = tested on: TK-10 renal
# U251 CNS = tested on: U251 CNS
# UACC-257 melanoma = tested on: UACC-257 melanoma
# UACC-62 melanoma = tested on: UACC-62 melanoma
# UO-31 renal = tested on: UO-31 renal
# HCC-2998 colon = tested on: HCC-2998 colon
# MOLT-4 leukemia = tested on: MOLT-4 leukemia
# SF-539 CNS = tested on: SF-539 CNS
smiles,measurement,setting,value
O=S(=O)(O)C(c1ccccc1)C(O)c1ccccc1 (stereo not drawn),TGI,786-0 renal,> 100 µM
same,TGI,A498 renal,> 100 µM
same,TGI,A549 NSCLC,> 100 µM
same,TGI,ACHN renal,> 100 µM
same,TGI,BT-549 breast,> 100 µM
same,TGI,CAKI-1 renal,> 100 µM
same,TGI,CCRF-CEM leukemia,> 100 µM
same,TGI,COLO 205 colon,> 100 µM
same,TGI,DU-145 prostate,> 100 µM
same,TGI,EKVX NSCLC,> 100 µM
same,TGI,HCT-116 colon,> 100 µM
same,TGI,HCT-15 colon,> 100 µM
same,TGI,HL-60(TB) leukemia,> 100 µM
same,TGI,HOP-62 NSCLC,> 100 µM
same,TGI,HOP-92 NSCLC,> 100 µM
same,TGI,HS 578T breast,> 100 µM
same,TGI,HT29 colon,> 100 µM
same,TGI,IGROV1 ovarian,> 100 µM
same,TGI,K-562 leukemia,> 100 µM
same,TGI,KM12 colon,> 100 µM
same,TGI,LOX IMVI melanoma,> 100 µM
same,TGI,M14 melanoma,> 100 µM
same,TGI,MALME-3M melanoma,> 100 µM
same,TGI,MCF7 breast,> 100 µM
same,TGI,MDA-MB-231 breast,> 100 µM
same,TGI,MDA-MB-435,> 100 µM
same,TGI,MDA-N,> 100 µM
same,TGI,NCI-H226 lung,> 100 µM
same,TGI,NCI-H23 lung,> 100 µM
same,TGI,NCI-H460 lung,> 100 µM
same,TGI,NCI-H522 lung,> 100 µM
same,TGI,NCI/ADR-RES ovarian,> 100 µM
same,TGI,OVCAR-3 ovarian,> 100 µM
same,TGI,OVCAR-4 ovarian,> 100 µM
same,TGI,OVCAR-5 ovarian,> 100 µM
same,TGI,OVCAR-8 ovarian,> 100 µM
same,TGI,PC-3 prostate,> 100 µM
same,TGI,RPMI-8226 leukemia,> 100 µM
same,TGI,RXF 393 renal,> 100 µM
same,TGI,SF-268 CNS,> 100 µM
same,TGI,SF-295 CNS,> 100 µM
same,TGI,SK-MEL-2 melanoma,> 100 µM
same,TGI,SK-MEL-28 melanoma,> 100 µM
same,TGI,SK-MEL-5 melanoma,> 100 µM
same,TGI,SK-OV-3 ovarian,> 100 µM
same,TGI,SN12C renal,> 100 µM
same,TGI,SNB-19 CNS,> 100 µM
same,TGI,SNB-75 CNS,> 100 µM
same,TGI,SR leukemia,> 100 µM
same,TGI,SW-620 colon,> 100 µM
same,TGI,T-47D breast,> 100 µM
same,TGI,TK-10 renal,> 100 µM
same,TGI,U251 CNS,> 100 µM
same,TGI,UACC-257 melanoma,> 100 µM
same,TGI,UACC-62 melanoma,> 100 µM
same,TGI,UO-31 renal,> 100 µM
CC1(c2ccc(Cl)cc2)C=C(c2ccc(Cl)cc2)C(C#N)=C(C(C#N)C#N)N1 (stereo not drawn),TGI,786-0 renal,26.9 µM
same,TGI,A498 renal,33.7 µM
same,TGI,A549 NSCLC,42.2 µM
same,TGI,ACHN renal,30.5 µM
same,TGI,BT-549 breast,43.3 µM
same,TGI,CAKI-1 renal,32.2 µM
same,TGI,CCRF-CEM leukemia,> 100 µM
same,TGI,COLO 205 colon,32.8 µM
same,TGI,DU-145 prostate,29.6 µM
same,TGI,EKVX NSCLC,31.3 µM
same,TGI,HCC-2998 colon,31.3 µM
same,TGI,HCT-116 colon,27.3 µM
same,TGI,HCT-15 colon,30.4 µM
same,TGI,HL-60(TB) leukemia,41.1 µM
same,TGI,HOP-62 NSCLC,31.9 µM
same,TGI,HS 578T breast,29.4 µM
same,TGI,HT29 colon,32.8 µM
same,TGI,IGROV1 ovarian,25.6 µM
same,TGI,K-562 leukemia,> 100 µM
same,TGI,KM12 colon,38.6 µM
same,TGI,LOX IMVI melanoma,32.3 µM
same,TGI,M14 melanoma,36 µM
same,TGI,MALME-3M melanoma,29.1 µM
same,TGI,MCF7 breast,37.3 µM
same,TGI,MDA-MB-231 breast,54.9 µM
same,TGI,MDA-MB-435,34.5 µM
same,TGI,MDA-N,31.8 µM
same,TGI,MOLT-4 leukemia,47 µM
same,TGI,NCI-H226 lung,98.2 µM
same,TGI,NCI-H23 lung,32.3 µM
same,TGI,NCI-H460 lung,52.9 µM
same,TGI,NCI/ADR-RES ovarian,39.9 µM
same,TGI,OVCAR-3 ovarian,21.3 µM
same,TGI,OVCAR-4 ovarian,32.6 µM
same,TGI,OVCAR-5 ovarian,33 µM
same,TGI,OVCAR-8 ovarian,30.7 µM
same,TGI,PC-3 prostate,31.5 µM
same,TGI,RPMI-8226 leukemia,> 100 µM
same,TGI,RXF 393 renal,38.2 µM
same,TGI,SF-268 CNS,23.9 µM
same,TGI,SF-295 CNS,33.9 µM
same,TGI,SF-539 CNS,43.9 µM
same,TGI,SK-MEL-2 melanoma,47.1 µM
same,TGI,SK-MEL-28 melanoma,66.6 µM
same,TGI,SK-MEL-5 melanoma,28.2 µM
same,TGI,SK-OV-3 ovarian,30.8 µM
same,TGI,SN12C renal,33.5 µM
same,TGI,SNB-19 CNS,37.2 µM
same,TGI,SNB-75 CNS,33.6 µM
same,TGI,SR leukemia,73.8 µM
same,TGI,SW-620 colon,> 100 µM
same,TGI,T-47D breast,46.9 µM
same,TGI,TK-10 renal,33.8 µM
same,TGI,U251 CNS,33 µM
same,TGI,UACC-257 melanoma,37.3 µM
same,TGI,UACC-62 melanoma,28.2 µM
same,TGI,UO-31 renal,30.5 µM

# Reference: PubChem BioAssay (NCI)
